Laboratory results reported in patent US20250052744A1, “Dyes and Uses Thereof” (The University of Liverpool, priority 2021, published 2025).

Legend:
Assay type in all cases: cell-based
Klebsiella = experiment: Qualitative dye staining on agarose pads (EVOS M7000); parameters: key to Relative fluorescent intensity: Very high: If the cells looked twice as big in the fluorescent channel, it was marked as having “very high” relative fluorescent intensity; High: if the cells looked bigger in the fluorescent channel, it was marked as having “high” relative fluorescent intensity; Medium: If the cells looked almost the same size in the fluorescent channel and the bright field, it was marked as having “medium” relative fluorescent intensity; Low: If the cells looked smaller in the fluorescent channel as compared to the brightfield but still the whole cell was visible, it was marked as having “low” relative fluorescent intensity; Negligible: If only a few traces of a cell was visible in the fluorescent channel, it was marked as having “negligible” relative fluorescent intensity; conditions: Table 6 thresholds, DiSC3(5) 3 μM, SYBR Green I 10×, SYTO 13 3 μM, FM4-64 15 μM
Procedure: An overnight culture was prepared by inoculating a bacterial colony in approximately 5 ml of Urine and incubating the culture in an orbital shaker at 37° C.
The following media and materials were utilised: Cation-adjusted Mueller Hinton broth (MHB); Phosphate Buffered Saline (PBS); Membrane staining dye—FM4-64 (1.5 mM); Live cell staining dye—DiSC3(5) (1 mM); DNA staining dye—SYBR Green (1000×); DNA staining dye—SYTO 13 (0.5 mM); Ultrapure Agarose; Parafilm; Glass slides and coverslips; Scalpel; and EVOS M7000 fluorescent microscope.
A pre-cut parafilm or a coverslip was used as a guide and 22 mm×22 mm squares cut from parafilm. A square was cut out of the centre of the parafilm (approximately 10 mm×10 mm). The centre of the cut-out was discarded. Two parafilm gaskets were placed onto a cleaned glass slide. The glass slide was then placed on a dry bath set to 56° C. so that the parafilm adhered to the glass slide. The glass slide was then kept on the dry bath. Using a microwave, ultrapure agarose was dissolved in PBS at a concentration of 1.2%. The agarose solution was kept on a dry bath set at 56° C. 60 μl of the agarose solution was pipetted in the centre of the parafilm gaskets. A coverslip was then placed over the gaskets without applying pressure on the coverslip. The slide was then placed on a cool surface and left to solidify for 1-2 minutes. The coverslips were then gently lifted off the agarose pads.
In a first Eppendorf, 15 μl of FM4-64 and 6 μl of SYTO 13 was added and in a second Eppendorf 10 μl of SYBR Green and 3 μl of DiSC3(5) was added. Depending on the bacterial growth in urine, an appropriate concentration of the bacterial culture was placed in the two Eppendorfs (final bacterial concentration 10^6 CFU/ml). MHB was added so as to achieve a final volume of 1 ml. Final concentrations of the dyes in the sample was as follows: DiSC3(5): 3 μM; SYBR Green I: 10× (originally supplied as 10,000×); SYTO 13: 3 μM; and FM4-64: 15 μM
4 μl of the contents of each Eppendorf were deposited on one agarose pad and the cells distributed across the agar surface by tilting the slide. The slide was left to dry for approximately 1 minute. A coverslip was then placed on top of the agarose pad. The slide was placed inside the microscope and incubated at 37° C. for 10 minutes. Using different light filters for each dye, an image of each pad at 40× magnification on an EVOS M7000 fluorescent microscope was captured. Eight images for each agarose pad was recorded (i.e. 8 each for brightfield and 2 fluorescent channels). For each agarose pad, 24 images were recorded. This corresponded to 48 images in total for each bacterial strain (2 agarose pads per strain). Table A below was used to take the images using the correct fluorescent channel and intensity (for imagining on any other instrument, the LED intensity will need to be normalised against the EVOS M7000).
To qualitatively calculate the relative fluorescent intensities, cell size was compared between brightfield and the fluorescent channel for a given fluorescent dye. If the cells are very fluorescent, they will appear bigger in the fluorescent channel as compared to the bright field. For our qualitative measurements, if the cells looked bigger in the fluorescent channel, it was marked as having “high” relative fluorescent intensity. If the cells looked twice as big in the fluorescent channel, it was marked as having “very high” relative fluorescent intensity. If the cells looked almost the same size in the fluorescent channel and the bright field, it was marked as having “medium” relative fluorescent intensity. If the cells looked smaller in the fluorescent channel as compared to the brightfield but still the whole cell was visible, it was marked as having “low” relative fluorescent intensity. If only a few traces of a cell was visible in the fluorescent channel, it was marked as having “negligible” relative fluorescent intensity.

P. Aeruginosa NCTC 10332 = experiment: Fluorescent signal intensity of stained bacteria (microscope, ImageJ)
Procedure: (§1) Firstly, all different bacterial strains were grown overnight in LB at 37° C. and 200 rpm. The mid-exponential phase cultures of bacterial strains were then diluted to a concentration of 10^5 cells·mL^−1 in LB. SYBR Green I, SYTO 13/9 and DiSC3(5) dyes were prepared by diluting them from their stocks.
(§2) The three dyes (SYBR Green I, SYTO 13/9 and DiSC3(5)) were then added in the final concentrations of 3 μM—DiSC3(5), 3 μM—SYTO 13/9 and 10× (diluted from the stock 10,000×)—SYBR Green I to the different bacterial strains and the strains incubated […] at 37° C. for 10 minutes in the dark.
(§3) The bacterial strains were then put on a haemocytometer and visualised under a microscope with fluorescent filters corresponding to individual dyes. Images were taken for all the bacterial strains at the same intensity of the incident laser light and 10-15 images were taken for each of the bacterial strains.
(§4) The images were then analysed on ImageJ software by first converting the coloured images to monochromatic images, then selecting an area with cells and analysing the plot profile. The intensity of the peaks and background from the image was then recorded.
(§5) A similar protocol to Example 1 was followed, with the addition of […] of FM 4-64.

[1] = tested on: Klebsiella pneumoniae NCTC 9633; experiment: as above
Procedure: as §1, §2, §3, §4, §5

S. Aureus NCTC 8532 = experiment: as above
Procedure: as §1, §2, §3, §4, §5

P. Mirabilis NCTC 11938 = experiment: as above
Procedure: as §1, §2, §3, §4, §5

E. Coli SEC 31 = experiment: as above
Procedure: as §1, §2, §3, §4, §5

[2] = tested on: Enterococcus faecium NCTCT 7171; experiment: as above
Procedure: as §1, §2, §3, §4, §5

[3] = Table 1, 3 μM DiSC3(5), 3 μM SYTO 13/9, 10× SYBR Green I, 37° C. for 10 minutes, background subtracted
[4] = Table 3, DiSC3(5) 3 uM, SYBR Green 10x, SYTO 13/9 3 uM, FM 4-64 15 uM

Row | Compound | Percentage of cells stained (Klebsiella) | Relative fluorescent intensity (Klebsiella) | fluorescent signal intensity value, Average (P. Aeruginosa NCTC 10332; [3]) | fluorescent signal intensity value, Average (P. Aeruginosa NCTC 10332; [4]) | fluorescent signal intensity value, Average [1, 3] | fluorescent signal intensity value, Average [1, 4] | fluorescent signal intensity value, Average (S. Aureus NCTC 8532; [3]) | fluorescent signal intensity value, Average (S. Aureus NCTC 8532; [4]) | fluorescent signal intensity value, Average (P. Mirabilis NCTC 11938; [3]) | fluorescent signal intensity value, Average (P. Mirabilis NCTC 11938; [4]) | fluorescent signal intensity value, Average (E. Coli SEC 31; [3]) | fluorescent signal intensity value, Average (E. Coli SEC 31; [4]) | fluorescent signal intensity value, Average [2, 3] | fluorescent signal intensity value, Average [2, 4]
1 | CCCN1C(=CC=CC=Cc2sc3ccccc3[n+]2CCC)Sc2ccccc21.[I-] [DiSC3(5), 3,3′-Dipropylthiadicarbocyanine Iodide] | Few | Low-Medium | 0.00 | 0.00 | 16.70 | 16.70 | 184.80 | 184.80 | 88.50 | 88.50 | 62.66 | 62.66 | 142.28 | 142.28
2 | CCN(CC)c1ccc(C=CC=CC=Cc2cc[n+](CCC[N+](CC)(CC)CC)cc2)cc1.[Br-].[Br-] [FM 4-64, N-(3-Triethylammoniumpropyl)-4-(6-(4-(Diethylamino) Phenyl) Hexatrienyl) Pyridinium Dibromide] | Few | Low | – | 10.00 | – | 30.00 | – | 89.00 | – | 0.00 | – | 56.50 | – | 25.00
3 | CCCN(CCCN(C)C)c1cc(/C=C2/Sc3ccccc3N2C)c2ccccc2[n+]1-c1ccccc1 [SYBR Green I, N′,N′-dimethyl-N-[4-[(E)-(3-methyl-1,3-benzothiazol-2-ylidene)methyl]-1-phenylquinolin-1-ium-2-yl]-N-propylpropane-1,3-diamine] | Few | Low | 123.67 | 123.67 | 21.87 | 21.87 | 196.52 | 196.52 | 109.85 | 109.85 | 104.53 | 104.53 | 162.27 | 162.27
